The source of these data is US8691865B2 (AbbVie Inc., priority 2008, dated 2014).

The target of the first assay is human Cav2.2 (Homo sapiens, UniProt Q00975). Nature of the assay: Assessment of calcium channel activity using FLIPR (Ca2+ influx in IMR32 cells).
human Cav2.2, sequence (Q00975 whole entry): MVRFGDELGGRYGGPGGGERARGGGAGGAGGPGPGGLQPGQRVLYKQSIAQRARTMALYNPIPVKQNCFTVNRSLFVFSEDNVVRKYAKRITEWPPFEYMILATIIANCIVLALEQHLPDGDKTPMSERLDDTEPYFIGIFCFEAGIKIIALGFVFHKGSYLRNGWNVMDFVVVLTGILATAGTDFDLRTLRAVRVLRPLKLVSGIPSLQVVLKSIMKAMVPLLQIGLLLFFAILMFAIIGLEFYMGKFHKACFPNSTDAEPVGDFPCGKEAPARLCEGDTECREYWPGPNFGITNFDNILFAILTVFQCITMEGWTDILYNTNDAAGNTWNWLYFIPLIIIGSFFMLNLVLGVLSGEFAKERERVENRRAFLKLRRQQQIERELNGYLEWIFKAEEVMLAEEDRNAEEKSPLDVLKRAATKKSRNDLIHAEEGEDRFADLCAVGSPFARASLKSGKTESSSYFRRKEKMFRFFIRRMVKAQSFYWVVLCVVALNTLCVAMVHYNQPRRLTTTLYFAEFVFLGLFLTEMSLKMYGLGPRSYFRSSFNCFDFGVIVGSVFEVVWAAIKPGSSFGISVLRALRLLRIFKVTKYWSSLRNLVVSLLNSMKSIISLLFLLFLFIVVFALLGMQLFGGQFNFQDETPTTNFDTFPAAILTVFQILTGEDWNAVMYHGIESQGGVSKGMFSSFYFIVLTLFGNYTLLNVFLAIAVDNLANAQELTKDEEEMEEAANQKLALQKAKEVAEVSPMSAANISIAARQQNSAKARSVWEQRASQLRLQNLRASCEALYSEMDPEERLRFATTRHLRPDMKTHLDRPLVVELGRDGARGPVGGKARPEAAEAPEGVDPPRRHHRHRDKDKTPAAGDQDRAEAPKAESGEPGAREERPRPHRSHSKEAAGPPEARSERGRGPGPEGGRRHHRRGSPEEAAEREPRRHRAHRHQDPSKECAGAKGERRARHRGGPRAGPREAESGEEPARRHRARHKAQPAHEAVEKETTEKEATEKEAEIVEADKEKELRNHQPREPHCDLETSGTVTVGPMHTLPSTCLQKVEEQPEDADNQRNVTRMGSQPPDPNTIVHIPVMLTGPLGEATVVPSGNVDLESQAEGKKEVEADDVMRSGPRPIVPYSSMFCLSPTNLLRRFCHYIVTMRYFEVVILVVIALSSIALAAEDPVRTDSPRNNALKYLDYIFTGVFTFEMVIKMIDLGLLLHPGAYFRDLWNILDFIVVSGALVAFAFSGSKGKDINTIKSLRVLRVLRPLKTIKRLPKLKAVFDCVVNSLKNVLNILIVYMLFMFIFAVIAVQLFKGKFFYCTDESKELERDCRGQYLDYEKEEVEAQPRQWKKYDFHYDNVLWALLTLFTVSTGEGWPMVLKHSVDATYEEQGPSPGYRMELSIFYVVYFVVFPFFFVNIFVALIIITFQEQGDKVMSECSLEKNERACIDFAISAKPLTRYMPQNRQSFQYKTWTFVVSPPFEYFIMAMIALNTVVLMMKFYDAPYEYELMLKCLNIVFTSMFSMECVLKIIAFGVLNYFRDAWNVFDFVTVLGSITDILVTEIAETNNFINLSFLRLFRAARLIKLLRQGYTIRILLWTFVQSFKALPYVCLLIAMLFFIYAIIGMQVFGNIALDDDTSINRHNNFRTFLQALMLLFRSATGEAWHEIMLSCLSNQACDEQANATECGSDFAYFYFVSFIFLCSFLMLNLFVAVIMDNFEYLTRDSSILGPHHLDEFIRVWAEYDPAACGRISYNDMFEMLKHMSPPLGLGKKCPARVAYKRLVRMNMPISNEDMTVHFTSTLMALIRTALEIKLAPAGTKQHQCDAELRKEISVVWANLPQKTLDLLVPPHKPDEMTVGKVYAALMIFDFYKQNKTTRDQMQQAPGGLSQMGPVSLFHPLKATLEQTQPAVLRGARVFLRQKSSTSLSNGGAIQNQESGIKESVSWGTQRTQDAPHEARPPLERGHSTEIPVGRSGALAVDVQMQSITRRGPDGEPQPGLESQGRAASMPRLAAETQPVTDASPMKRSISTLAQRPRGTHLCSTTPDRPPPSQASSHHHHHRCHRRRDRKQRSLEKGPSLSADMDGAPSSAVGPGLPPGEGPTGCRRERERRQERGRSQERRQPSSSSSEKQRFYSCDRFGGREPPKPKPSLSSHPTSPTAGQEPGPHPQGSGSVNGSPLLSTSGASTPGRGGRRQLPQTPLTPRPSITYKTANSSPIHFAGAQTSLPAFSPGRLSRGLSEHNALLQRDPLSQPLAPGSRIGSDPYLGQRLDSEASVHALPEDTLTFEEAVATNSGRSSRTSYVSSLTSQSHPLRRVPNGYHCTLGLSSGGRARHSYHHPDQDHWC
human Cav2.2, sequence (P54289 25-956 partner limits assumed): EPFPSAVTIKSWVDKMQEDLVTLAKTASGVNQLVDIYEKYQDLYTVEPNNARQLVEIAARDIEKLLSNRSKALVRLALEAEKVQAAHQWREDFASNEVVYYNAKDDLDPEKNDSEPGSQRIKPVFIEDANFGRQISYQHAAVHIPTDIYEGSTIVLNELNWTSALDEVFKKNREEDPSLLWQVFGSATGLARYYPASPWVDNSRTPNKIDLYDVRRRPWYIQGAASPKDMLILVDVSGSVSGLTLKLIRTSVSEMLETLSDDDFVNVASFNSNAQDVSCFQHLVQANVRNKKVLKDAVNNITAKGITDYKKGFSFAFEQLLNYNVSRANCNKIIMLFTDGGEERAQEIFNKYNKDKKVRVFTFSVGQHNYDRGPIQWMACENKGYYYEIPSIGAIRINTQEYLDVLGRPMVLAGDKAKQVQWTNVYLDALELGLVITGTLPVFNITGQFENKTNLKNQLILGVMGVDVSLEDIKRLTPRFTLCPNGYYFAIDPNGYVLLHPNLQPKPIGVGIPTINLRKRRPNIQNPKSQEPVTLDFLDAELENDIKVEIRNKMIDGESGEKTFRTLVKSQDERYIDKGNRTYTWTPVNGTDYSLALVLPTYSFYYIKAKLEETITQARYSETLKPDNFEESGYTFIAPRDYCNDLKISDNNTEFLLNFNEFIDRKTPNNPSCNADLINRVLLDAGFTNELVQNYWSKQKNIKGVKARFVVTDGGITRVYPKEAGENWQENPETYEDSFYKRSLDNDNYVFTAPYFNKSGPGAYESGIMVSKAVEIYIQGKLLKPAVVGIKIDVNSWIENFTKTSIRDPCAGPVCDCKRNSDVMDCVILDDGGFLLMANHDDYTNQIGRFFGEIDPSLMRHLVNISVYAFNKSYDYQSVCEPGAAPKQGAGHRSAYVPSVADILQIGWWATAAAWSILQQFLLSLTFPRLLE
human Cav2.2, sequence (P54289 957-1103 partner limits assumed): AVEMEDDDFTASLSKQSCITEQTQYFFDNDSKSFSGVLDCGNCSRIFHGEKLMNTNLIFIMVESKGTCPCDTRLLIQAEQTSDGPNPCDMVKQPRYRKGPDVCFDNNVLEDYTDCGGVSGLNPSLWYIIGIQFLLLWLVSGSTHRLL
human Cav2.2, sequence (P54284 whole entry partner): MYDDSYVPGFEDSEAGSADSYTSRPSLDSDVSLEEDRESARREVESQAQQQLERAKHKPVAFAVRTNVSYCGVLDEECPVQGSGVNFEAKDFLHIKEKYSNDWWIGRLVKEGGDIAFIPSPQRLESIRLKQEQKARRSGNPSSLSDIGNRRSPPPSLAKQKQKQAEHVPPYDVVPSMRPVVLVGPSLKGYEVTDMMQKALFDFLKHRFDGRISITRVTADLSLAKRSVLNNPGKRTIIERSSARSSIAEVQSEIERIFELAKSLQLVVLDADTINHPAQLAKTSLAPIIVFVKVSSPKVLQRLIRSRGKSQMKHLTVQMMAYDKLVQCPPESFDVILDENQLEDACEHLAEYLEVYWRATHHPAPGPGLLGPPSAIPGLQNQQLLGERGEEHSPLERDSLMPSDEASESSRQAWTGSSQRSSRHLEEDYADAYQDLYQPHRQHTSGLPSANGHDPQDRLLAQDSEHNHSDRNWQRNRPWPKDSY
Conditions: not given
The format is cell-based. In a few lines:
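IC50 values derive from nonlinear sigmoidal fitting of percent inhibition, relative to inhibitor-free activity, of Ca2+ influx read by FLIPR. Cells were IMR32 human neuroblastoma, plated at 1−1.2×10^5 per well and grown 48 h at 37 °C.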
Broadly, the IC50 is the concentration that inhibits the measured activity by half. Take `Cc1ccc(N2C[C@H]3CC[C@H](NC(=O)[C@@H]4C[C@@H](F)CN4)[C@H]3C2)cc1` [Example 652, (4R)-4-fluoro-N-[(3aR,4S,6aS)-2-(4-methylphenyl)octahydrocyclopenta[c]pyrrol-4-yl]-L-prolinamide]: the IC50 was determined as 21.2 µM.

`CCC[C@H](NC)C(=O)N[C@H]1CC[C@@H]2CN(c3cccc(C(F)(F)F)n3)C[C@@H]21` [Example 588, N^2-methyl-N-{(3aR,4S,6aS)-2-[6-(trifluoromethyl)pyridin-2-yl]octahydrocyclopenta[c]pyrrol-4-yl}-L-norvalinamide]: the IC50 was determined as 1.02 µM.

Take `O=C(N[C@H]1CC[C@@H]2CN(c3cccc(C(F)(F)F)n3)C[C@@H]21)c1cc(Cl)c[nH]1` [Example 575, 4-chloro-N-{(3aR,4S,6aS)-2-[6-(trifluoromethyl)pyridin-2-yl]octahydrocyclopenta[c]pyrrol-4-yl}-1H-pyrrole-2-carboxamide]: the IC50 stood at 0.7 µM.

As for `O=C(N[C@H]1CC[C@H]2CN(Cc3ccccc3)C[C@H]21)C(C1CCCCC1)C1CCCCC1` (relative stereo) [Example 11, N-[(3aS*,4S*,6aR*)-2-benzyloctahydrocyclopenta[c]pyrrol-4-yl]-2,2-dicyclohexylacetamide], the IC50 was 4.67 µM.

`NCC(=O)N[C@H]1CC[C@@H]2CN(c3ccc(C(F)(F)F)cc3)C[C@@H]21` [Example 751, N-{(3aR,4S,6aS)-2-[4-(trifluoromethyl)phenyl]octahydrocyclopenta[c]pyrrol-4-yl}glycinamide]: the 50% inhibitory concentration (IC50) is over 3 µM.

Regarding `CN[C@@H](CC(C)(C)C)C(=O)N[C@H]1CC[C@@H]2CN(c3ccc(C(F)(F)F)cn3)C[C@@H]21` [Example 602, N^2,4-dimethyl-N-{(3aR,4S,6aS)-2-[5-(trifluoromethyl)pyridin-2-yl]octahydrocyclopenta[c]pyrrol-4-yl}-L-leucinamide], the IC50 amounted to 1.88 µM.

With `Cn1c(CN[C@H]2CC[C@@H]3CN(c4cccc(C(F)(F)F)n4)C[C@@H]32)cc2ccccc21` [Example 720, (3aR,4S,6aS)-N-[(1-methyl-1H-indol-2-yl)methyl]-2-[6-(trifluoromethyl)pyridin-2-yl]octahydrocyclopenta[c]pyrrol-4-amine], the IC50 was determined as 1.44 µM.

As for `CCC[C@H](NC)C(=O)N[C@@H]1CC[C@H]2CN(Cc3ccc(C(F)(F)F)cc3)C[C@H]21` [Example 371, N^2-methyl-N^1-{(3aS,4R,6aR)-2-[4-(trifluoromethyl)benzyl]octahydrocyclopenta[c]pyrrol-4-yl}-L-norvalinamide], the IC50 was determined as 8.88 µM.

Regarding `O=C(N[C@H]1CC[C@@H]2CN(c3cccc(C(F)(F)F)n3)C[C@@H]21)c1ccccc1F` [Example 563, 2-fluoro-N-{(3aR,4S,6aS)-2-[6-(trifluoromethyl)pyridin-2-yl]octahydrocyclopenta[c]pyrrol-4-yl}benzamide], the IC50 is 1.32 µM.

On to `CC(C)C(C(=O)N[C@@H]1CC[C@@H]2CN(Cc3ccccc3)C[C@@H]21)c1ccccc1` (relative stereo) [Example 5, N-[(3aR*,4R*,6aS*)-2-benzyloctahydrocyclopenta[c]pyrrol-4-yl]-3-methyl-2-phenylbutanamide], for which the IC50 was found to be 1.46 µM.

As to `CN[C@@H](CC(C)C)C(=O)N[C@H]1CC[C@@H]2CN(c3cc(F)ccc3C(F)F)C[C@@H]21` [Example 770, N-{(3aR,4S,6aS)-2-[2-(difluoromethyl)-5-fluorophenyl]octahydrocyclopenta[c]pyrrol-4-yl}-N^2-methyl-L-leucinamide], the IC50 was 0.75 µM.

Regarding `CN[C@@H](CC(C)C)C(=O)N[C@H]1CC[C@@H]2CN(c3ccccc3C(F)F)C[C@@H]21` [Example 771, N-{(3aR,4S,6aS)-2-[2-(difluoromethyl)phenyl]octahydrocyclopenta[c]pyrrol-4-yl}-N^2-methyl-L-leucinamide], the IC50 came out at 2.9 µM.

Take `FC(F)(F)c1cccc(N2C[C@H]3CC[C@H](NCc4coc(-c5ccc(Cl)cc5)n4)[C@H]3C2)n1` [Example 741, (3aR,4S,6aS)-N-{[2-(4-chlorophenyl)-1,3-oxazol-4-yl]methyl}-2-[6-(trifluoromethyl)pyridin-2-yl]octahydrocyclopenta[c]pyrrol-4-amine]: the IC50 stood at 1.16 µM.

Regarding `CCC[C@H](NC)C(=O)N[C@H]1CC[C@@H]2CN(S(=O)(=O)c3ccc(OC(F)(F)F)cc3)C[C@@H]21` [Example 532, N^2-methyl-N^1-((3aR,4S,6aS)-2-{[4-(trifluoromethoxy)phenyl]sulfonyl}octahydrocyclopenta[c]pyrrol-4-yl)-L-norvalinamide], the IC50 was found to be 3.16 µM.

As for `O=C(N[C@H]1CC[C@@H]2CN(c3cccc(C(F)(F)F)c3)C[C@@H]21)[C@@H]1C[C@@H](F)CN1` [Example 617, (4R)-4-fluoro-N-{(3aR,4S,6aS)-2-[3-(trifluoromethyl)phenyl]octahydrocyclopenta[c]pyrrol-4-yl}-L-prolinamide], the IC50 turned out to be 2.57 µM.

For `FC(F)(F)c1cccc(N2C[C@H]3CC[C@H](NCc4c[nH]c5ccc(Cl)cc45)[C@H]3C2)n1` [Example 680, (3aR,4S,6aS)-N-[(5-chloro-1H-indol-3-yl)methyl]-2-[6-(trifluoromethyl)pyridin-2-yl]octahydrocyclopenta[c]pyrrol-4-amine], the IC50 stood at 1.66 µM.

In the case of `O=C(N[C@H]1CC[C@@H]2CN(c3cccc(C(F)(F)F)n3)C[C@@H]21)c1ccc(F)c(Cl)c1` [Example 566, 3-chloro-4-fluoro-N-{(3aR,4S,6aS)-2-[6-(trifluoromethyl)pyridin-2-yl]octahydrocyclopenta[c]pyrrol-4-yl}benzamide], the IC50 came to 0.81 µM.

Consider `CN[C@H](C(=O)N[C@@H]1CC[C@H]2CN(Cc3ccccc3)C[C@H]21)C(C)C` [Example 351, N^1-[(3aS,4R,6aR)-2-benzyloctahydrocyclopenta[c]pyrrol-4-yl]-N^2-methyl-L-valinamide], for which the IC50 was over 30 µM.

For `O=C(N[C@H]1CC[C@H]2CN(Cc3cccc(C(F)(F)F)c3)C[C@H]21)C(O)(C1CCCCC1)C1CCCCC1` [Example 152, 2,2-dicyclohexyl-2-hydroxy-N-{(3aS,4S,6aR)-2-[3-(trifluoromethyl)benzyl]octahydrocyclopenta[c]pyrrol-4-yl}acetamide], the IC50 was determined as 0.51 µM.

`O=C(N[C@H]1CC[C@@H]2CN(c3cccc(C(F)(F)F)n3)C[C@@H]21)c1ccc(F)c(F)c1` [Example 565, 3,4-difluoro-N-{(3aR,4S,6aS)-2-[6-(trifluoromethyl)pyridin-2-yl]octahydrocyclopenta[c]pyrrol-4-yl}benzamide]: the IC50 came to 0.81 µM.

For `O=C(N[C@@H]1CC[C@@H]2CN(Cc3ccccc3)C[C@@H]21)C(c1ccccc1)C1CCCCC1` (relative stereo) [Example 3, N-[(3aR*,4R*,6aS*)-2-benzyloctahydrocyclopenta[c]pyrrol-4-yl]-2-cyclohexyl-2-phenylacetamide], the IC50 was determined as 1.06 µM.

The assay is the same for the next values; noted with them: read-out: IC50 (μM) or percent inhibition (* indicates 3 minute incubation, otherwise 60 minute); IC50; 60 minute pre-incubation with compound; IMR32 cells, 80 mM KCl depolarization.
For “(3aR,4S,6aS)-N-[(5-fluoro-1-methyl-1H-indol-2-yl)methyl]-2-[6-(trifluoromethyl)pyridin-2-yl]octahydrocyclopenta[c]pyrrol-4-amine [Example 748]”, the IC50 amounted to 0.81 µM.

On to `CN[C@@H](CC(C)C)C(=O)N[C@@H]1CC[C@H]2CN(S(=O)(=O)c3ccc(C(F)(F)F)cc3)C[C@H]21` [Example 183, N^2-methyl-N^1-((3aS,4R,6aR)-2-{[4-(trifluoromethyl)phenyl]sulfonyl}octahydrocyclopenta[c]pyrrol-4-yl)-L-leucinamide], for which the IC50 is 1.41 µM.

Regarding `CCN(CC)[C@H]1CC[C@@H]2CN(S(=O)(=O)c3ccc(C(F)(F)F)cc3Cl)C[C@@H]21` [Example 294, (3aR,4S,6aS)-2-{[2-chloro-4-(trifluoromethyl)phenyl]sulfonyl}-N,N-diethyloctahydrocyclopenta[c]pyrrol-4-amine], the IC50 amounted to 7.8 µM.

As for `CCC[C@H](NC)C(=O)N[C@H]1CC[C@@H]2CN(Cc3cccc(C(F)(F)F)c3)C[C@@H]21` [Example 376, N^2-methyl-N^1-{(3aR,4S,6aS)-2-[3-(trifluoromethyl)benzyl]octahydrocyclopenta[c]pyrrol-4-yl}-L-norvalinamide], the IC50 amounted to 10.6 µM.

Take `O=C(N[C@@H]1CC[C@H]2CN(CCCC(c3ccc(F)cc3)c3ccc(F)cc3)C[C@H]21)C(C1CCCCC1)C1CCCCC1` [Example 81, N-{(3aS,4R,6aR)-2-[4,4-bis(4-fluorophenyl)butyl]octahydrocyclopenta[c]pyrrol-4-yl}-2,2-dicyclohexylacetamide]: the IC50 came out at 1.13 µM.

Take `O=C(N[C@H]1CC[C@H]2CN(Cc3cccnc3)C[C@H]21)C(C1CCCCC1)C1CCCCC1` [Example 73, 2,2-dicyclohexyl-N-[(3aS,4S,6aR)-2-(pyridin-3-ylmethyl)octahydrocyclopenta[c]pyrrol-4-yl]acetamide]: the IC50 worked out at 3.26 µM.

With `O=S(=O)(c1cccc(C(F)(F)F)c1)N(C1CC1)[C@H]1CC[C@H]2CN(CCCCCC(c3ccc(F)cc3)c3ccc(F)cc3)C[C@H]21` (relative stereo) [Example 202, N-{(3aS*,4S*,6aR*)-2-[6,6-bis(4-fluorophenyl)hexyl]octahydrocyclopenta[c]pyrrol-4-yl}-N-cyclopropyl-3-(trifluoromethyl)benzenesulfonamide], the IC50 was 0.83 µM.

Turning to `CC(C)(C)[C@@H](C(=O)N[C@@H]1CC[C@H]2CN(Cc3ccccc3)C[C@H]21)c1ccccc1` [Example 32, (2R)-N-[(3aS,4R,6aR)-2-benzyloctahydrocyclopenta[c]pyrrol-4-yl]-3,3-dimethyl-2-phenylbutanamide], the IC50 was determined as 1.42 µM.

On to `CC(C)C[C@@H](N)C(=O)N[C@@H]1CC[C@@H]2CN(Cc3cccc(C(F)(F)F)c3)C[C@@H]21` (stereo in doubt) [Example 159, N^1-{(3aR*,4R*,6aS*)-2-[3-(trifluoromethyl)benzyl]octahydrocyclopenta[c]pyrrol-4-yl}-D-leucinamide], for which the IC50 amounted to 5.55 µM.
